Assays:
human α7 nAchR = target: T1, human α7 nAchR (Homo sapiens, UniProt P36544); test: Human α7 nicotinic acetylcholine receptor [Ca2+]i assay (Ca2+ fluorometry, PAM concentration-response); type: cell-based; settings: Flp-In 293 cells expressing human α7 nAchR and human RIC-3; in presence of saturating agonist (mostly PNU-282987, 1 μM)
T1 construct: expressed in transfected cells
Method: Human α7 Nicotinic Acetylcholine Receptor [Ca2+]i Assay
Cells: Flp-In 293 cells stably expressing human α7 nAchR and human RIC-3 (α7 cells, generated in house.)
Materials: 96-well plates coated with PDL (Falcon), culture medium, assay buffer, DMSO, FLIPR Calcium 5 kit (Molecular Devices), probenecid, agonist and PAM test compounds.
Brief Description of the Method (Ca^2+ Fluorometry)
α7 cells stably expressing human α7 nAchR were cultured in the medium detailed above, and were split twice a week. For the fluorometric measurements of cytosolic Ca^2+ ion concentration ([Ca^2+]i) cells were seeded in 96-well microplates at a density of 60000 cells/well and maintained overnight in a tissue culture incubator at 37° C. under an atmosphere of 95% air/5% CO2. The plating medium was identical with the culture medium. 50 μl of the growth medium was aspirated with a cell washer (BioTek Elx405UCVWS). Then 50 μl/well Calcium 5 kit diluted 2-fold in assay buffer was added manually using an 8-channel pipette. After an incubation period (20 minutes, 37° C.) 50 μl/well assay buffer containing vehicle (DMSO, 4% added) or reference α7 PAMs (4× of the final concentration) were added manually and the cells were incubated for an additional 10 minutes at 37° C. Baseline and agonist-evoked [Ca^2+]i-changes were monitored with FlexStation II (Molecular Devices, Sunnyvale, Calif.), a plate reader fluorometer with integrated 8-channel fluid addition capability. Fluorescence measurements were carried out at 37° C. The dye was excited at 485 nm, emission was sampled at 525 nm at 1.4-s intervals. Baseline was recorded for 20 seconds followed by agonist stimulation. 50 μl 4× concentrated agonist solution was added to the cells using the pipettor of FlexStation II and fluorescence was monitored for an additional 40 seconds. Final DMSO concentration was 1% for all treatments. To achieve this, a series of DMSO stock solutions were prepared from all test compounds. These stocks were stored under 0° C. and were further diluted in assay buffer to obtain the desired final concentration immediately before the measurement. Agonist and PAM concentration-response studies were conducted in the presence of saturating concentrations of PAMs (mostly PNU-120596, 5 μM) and agonists (mostly PNU-282987, 1 μM), respectively. Results were expressed as ΔF/F values using SoftMax Pro software (Molecular Devices), where F was the resting fluorescence preceding agonist application and ΔF was the increase in fluorescence at a given time (ΔF=maximum fluorescence intensity values after stimulation minus average fluorescence intensity values before stimulation). In all experiments, all treatments were measured in multiple wells in parallel, and the mean ΔF/F values were used for analysis.

Male NMRI mice = test: Place recognition test (Y-maze), reversal of scopolamine-induced amnesia; type: in vivo; settings: scopolamine 1 mg/kg i.p.
Method: In Vivo Pharmacology (Place Recognition Test)
Animals: Male NMRI mice (Toxicoop, Hungary)
Substances: Scopolamine was dissolved in saline and administered at 1 mg/kg dose i.p. Test compounds were administered 30 minutes before the acquisition trial (T1) and scopolamine after the acquisition trial at a volume of 0.1 ml/10 g.
Procedure: The task was carried out in a transparent plexiglass Y-maze (each arm has a length of 40 cm, an inner width of 11 cm and a height of 30 cm). Numerous visual cues were placed around the arms and were kept constant during the experiment. The test consisted of two trials (T1 and T2) separated by an intertrial interval of 30 minutes. Mice were placed in the starting arm of the maze at the beginning of each trial. In T1, one of the symmetric arms of the maze was closed (it will be novel in T2) and the animals were allowed to explore the maze for 5 minutes (acquisition phase). In T2, mice had free access to all three arms for 2 minutes (retrieval phase). The time spent with exploration in the novel and familiar arms during T2 was measured. Differences between the exploration times spent in the familiar vs. novel arms of the maze for each group were evaluated by MANOVA, followed by Duncan post hoc test.

T1 sequence (P36544 23-502): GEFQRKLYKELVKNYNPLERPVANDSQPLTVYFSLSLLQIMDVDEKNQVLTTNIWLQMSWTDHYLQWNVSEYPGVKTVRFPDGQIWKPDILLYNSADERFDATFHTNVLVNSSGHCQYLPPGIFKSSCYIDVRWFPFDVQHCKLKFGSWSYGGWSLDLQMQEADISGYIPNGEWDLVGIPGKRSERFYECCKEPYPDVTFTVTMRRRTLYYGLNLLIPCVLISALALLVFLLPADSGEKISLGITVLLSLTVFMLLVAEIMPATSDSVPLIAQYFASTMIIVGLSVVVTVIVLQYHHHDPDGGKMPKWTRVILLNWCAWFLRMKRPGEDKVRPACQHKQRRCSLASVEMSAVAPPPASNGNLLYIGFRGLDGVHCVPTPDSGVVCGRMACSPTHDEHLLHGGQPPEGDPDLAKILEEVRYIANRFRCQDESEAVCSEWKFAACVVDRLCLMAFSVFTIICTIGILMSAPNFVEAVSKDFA

Row | Compound | EC50 (human α7 nAchR) [nM] | reversal of the scopolamine-induced amnesia in the place recognition assay (exploration time novel vs. familiar arm, significance) (Male NMRI mice; 1 mg/kg i.p.) | reversal of the scopolamine-induced amnesia in the place recognition assay (exploration time novel vs. familiar arm, significance) (Male NMRI mice; 3 mg/kg i.p.) | reversal of the scopolamine-induced amnesia in the place recognition assay (exploration time novel vs. familiar arm, significance) (Male NMRI mice; 10 mg/kg i.p.)
1 | Cn1cc(Cl)c2cc(CNC(=O)N3CC4(CC(=O)c5cc(F)ccc5O4)C3)cnc21 [Example 39] | 730 |  |  | 
2 | Cn1ccc2cc(CNC(=O)N3CCC4(CC(=O)c5cc(Cl)ccc5O4)C3)ccc21 (single isomer, unassigned) [Example 5a] | 430 |  |  | 
3 | O=C1CC2(CN(C(=O)NCc3ccc4[nH]c(C(F)F)cc4c3)C2)Oc2cc(F)ccc21 [Example 69, N-{[2-(difluoromethyl)-1H-indol-5-yl]methyl}-7′-fluoro-4′-oxo-3′,4′-dihydrospiro[azetidine-3,2′-[1]benzopyran]-1-carboxamide] | 120 |  |  | 
4 | Cc1cc2cc(CNC(=O)N3CC4(CC(=O)c5cc(F)cc(F)c5O4)C3)ccc2[nH]1 [Example 41, 6′,8′-difluoro-N-[(2-methyl-1H-indol-5-yl)methyl]-4′-oxo-3′,4′-dihydrospiro[azetidine-3,2′-[1]benzopyran]-1-carboxamide] | 60 | + (^+p < 0.05) | + (^+p < 0.05) | 
5 | Cn1ccc2cc(CNC(=O)N3CCC4(CCc5cc(Cl)ccc5O4)CC3)ccc21 [Example 10, 6-chloro-N-[(1-methyl-1H-indol-5-yl)methyl]-3,4-dihydrospiro[1-benzopyran-2,4′-piperidine]-1′-carboxamide] | 100 |  |  | 
6 | Cn1ccc2cc(CNC(=O)N3CCC4(CC(=O)c5cc(Cl)ccc5O4)C3)ccc21 (single isomer, unassigned) [Example 5b] | 400 |  |  | 
7 | Cn1cc(Cl)c2cc(CNC(=O)N3CC4(CC(=O)c5ccccc5O4)C3)ccc21 [Example 37] | 130 |  |  | 
8 | Cn1ccc2cc(CNC(=O)N3CCC4(CC(=O)c5cc(Cl)ccc5O4)C3)ccc21 (racemic) [Example 5] | 210 |  |  | 
9 | Cn1ccc2cc(CNC(=O)N3CC4(CC(=O)c5ccccc5O4)C3)ccc21 [Example 7, N-[(1-methyl-1H-indol-5-yl)methyl]-4′-oxo-3′,4′-dihydrospiro[azetidine-3,2′-[1]benzopyran]-1-carboxamide] | 230 | +++ (^+++p < 0.001) | +++ (^+++p < 0.001) | +++ (^+++p < 0.001)
10 | Cn1ccc2cc(CNC(=O)N3CC4(CC(=O)c5ccc(C(F)(F)F)cc5O4)C3)cnc21 [Example 59] | 500 |  |  | 
11 | CN1CCCc2cc(CNC(=O)N3CC4(CC(=O)c5ccc(F)cc5O4)C3)ccc21 [Example 71, 7′-Fluoro-N-[(1-methyl-1,2,3,4-tetrahydroquinolin-6-yl)methyl]-4′-oxo-3′,4′-dihydrospiro[azetidine-3,2′-[1]benzopyran]-1-carboxamide] | 2300 |  |  | 
12 | COc1ccc2c(c1)C(=O)CC1(CN(C(=O)NCc3ccc4c(c3)c(Cl)cn4C)C1)O2 [Example 25] | 230 |  |  | 
13 | Cn1ccc2cc(CNC(=O)N3CC4(CC(=O)c5cc(C(F)(F)F)ccc5O4)C3)ccc21 [Example 50] | 150 |  |  | 
14 | Cn1cc(F)c2cc(CNC(=O)N3CC4(CC(=O)c5cc(F)ccc5O4)C3)ccc21 [Example 38] | 220 |  |  | 
15 | COc1ccc2c(c1)OC1(CCN(C(=O)NCc3ccc4c(ccn4C)c3)CC1)CC2=O [Example 21] | 280 |  |  | 
16 | Cn1ccc2cc(CNC(=O)N3CC4(CC(=O)c5cc(Cl)cc(Cl)c5O4)C3)cnc21 [Example 58] | 470 |  |  | 
17 | O=C1CC2(CN(C(=O)NCc3ccc4[nH]ccc4c3)C2)Oc2ccc(Cl)cc21 [Example 26, 6′-chloro-N-[(1H-indol-5-yl)methyl]-4′-oxo-3′,4′-dihydrospiro[azetidine-3,2′-[1]benzopyran]-1-carboxamide] | 390 |  | + (^+p < 0.05) | 
18 | Cn1cc(Br)c2cc(CNC(=O)N3CC4(CC(=O)c5cc(F)ccc5O4)C3)cnc21 [Example 53] | 850 |  |  | 
19 | Cc1cc2cc(CNC(=O)N3CC4(CC(=O)c5cc(F)ccc5O4)C3)ccc2[nH]1 [Example 1, 6′-Fluoro-N-[(2-methyl-1H-indol-5-yl)methyl]-4′-oxo-3′,4′-dihydrospiro[azetidine-3,2′-[1]benzopyran]-1-carboxamide] | 120 | ++ (^++p < 0.01) |  | 
20 | Cn1ccc2cc(CNC(=O)N3CC4(CC(=O)c5ccc(F)cc5O4)C3)ccc21 [Example 6, 7′-fluoro-N-[(1-methyl-1H-indol-5-yl)methyl]-4′-oxo-3′,4′-dihydrospiro[azetidine-3,2′-[1]benzopyran]-1-carboxamide] | 190 | + (^+p < 0.05) | ++ (^++p < 0.01) | +++ (^+++p < 0.001)
21 | Cc1cc2cc(CNC(=O)N3CC4(CC(=O)c5ccc(C(F)(F)F)cc5O4)C3)cnc2n1C [Example 65] | 750 |  |  | 
22 | O=C1CC2(CN(C(=O)NCc3ccc4[nH]c(Cl)cc4c3)C2)Oc2cc(Cl)ccc21 [Example 43, 7′-chloro-N-[(2-chloro-1H-indol-5-yl)methyl]-4′-oxo-3′,4′-dihydrospiro[azetidine-3,2′-[1]benzopyran]-1-carboxamide] | 360 | + (^+p < 0.05) | +++ (^+++p < 0.001) | +++ (^+++p < 0.001)
23 | O=C1CC2(CN(C(=O)NCc3ccc4[nH]c(C(F)(F)F)cc4c3)C2)Oc2cc(F)ccc21 [Example 61, 7′-fluoro-4′-oxo-N-{[2-(trifluoromethyl)-1H-indol-5-yl]methyl}-3′,4′-dihydrospiro[azetidine-3,2′-[1]benzopyran]-1-carboxamide] |  |  | ++ (^++p < 0.01) | +++ (^+++p < 0.001)
24 | Cn1ccc2cc(CNC(=O)N3CC4(CC(=O)c5cc(Cl)ccc5O4)C3)ccc21 [Example 3, 6′-chloro-N-[(1-methyl-1H-indol-5-yl)methyl]-4′-oxo-3′,4′-dihydrospiro[azetidine-3,2′-[1]benzopyran]-1-carboxamide] | 120 |  |  | 
25 | Cn1ccc2cc(CNC(=O)N3CC4(CC(=O)c5ccc(C(F)(F)F)cc5O4)C3)ccc21 [Example 52, N-[(1-methyl-1H-indol-5-yl)methyl]-4′-oxo-7′-(trifluoromethyl)-3′,4′-dihydrospiro[azetidine-3,2′-[1]benzopyran]-1-carboxamide] | 130 |  |  | + (^+p < 0.05)

Source: US20210330650A1, “SPIROCHROMANE DERIVATIVES” (RICHTER GEDEON NYRT., priority 2018, published 2021)
